Source: patent US20160213635A1, “COMPOSITIONS USEFUL IN THE PREVENTION OR TREATMENT OF SKIN CANCER” (GIULIANI S.P.A., priority 2013, published 2016)

Tested on: NHKs cells
Assay: ELISA 8-OHdG determination after UVA irradiation and subsequent treatment with G01
Format: cell-based, human
Conditions: post-treatment 90 μM; UVA 10 J/cm^2; both post-treatment times 6 h and 24 h; vs cells only irradiated
Description: The NHKs cells were plated in the specific culture medium and maintained in culture for 24±2 h to allow adhesion to the plate. Then, the plates identified as +UVA and +UVA/G01 post were respectively exposed, in the irradiation medium, to a UVA dose of 10 J/cm^2. The irradiation medium was then replaced with the culture medium containing the compound of the invention G01, in a concentration of 90 μM. Based on preliminary results obtained on a broader time range, post-treatment times of 6 h and 24 h were selected, after which the plates were processed according to the procedure described in the work instruction specific for the DNA extraction. The determination of 8-OHdG, marker of DNA oxidative damage induced by UVA, was performed using a specific ELISA kit following the procedure described in the user manual.

C/C=C/C=C/C=C/C(=O)O [G01, 2,4,6-trans-octatrienoic acid]
amount of 8-OHdG produced by UVA radiation: significant reduction
